Patent EP4650362A1, “NEUROPROTECTIVE PSD-95 POLYPEPTIDE INHIBITOR AND USE THEREOF” (Beijing Tuo Jie Biopharmaceutical Co. Ltd., priority 2023, dated 2024)
Where two headings read alike, the source gives them in different places. Non-standard residues stand in square brackets, D forms with d. Residues, ends and D or L forms follow the SMILES beside them. Tle = CC(C)(C)[C@H](N)C(=O)O; Dab = NCC[C@H](N)C(=O)O; Aib = CC(C)(N)C(=O)O

Columns and labels:
[1] = plasma stability test, human plasma; type: in vitro ADME; conditions: for Relative remaining compound content (%): 0min (standard 100%)
Procedure: Solution preparation: An appropriate amount of a test polypeptide compound was weighed out and dissolved in an appropriate amount of 1× PBS to form a 1 mM test solution. NA-1 and NoNO42 were used as positive drugs, propantheline bromide was used as a human plasma test control, and lovastatin was used as a rat plasma test control. Plasma stability test: 12.5 µL of the 1 mM test solution was added to a 495 µL pre-incubated plasma sample. […] For each incubation time, two parallel samples were set. Subsequently, 200 µL of stop solution was added to stop the incubation, and the mixtures were vortexed for 5 min. Then the mixtures were centrifuged at 10,000 rpm at 4 °C for 10 min to remove the protein in the sample, and 70 µL of the supernatant was transferred to a new 96-well plate (70 µL of water was added to each well beforehand) and well mixed. […] Sample pretreatment: […] LC-MS analysis: […] (2) Mass-spectrometric conditions: The mass spectrometry analysis used an electrospray ionization (ESI) source, a positive ion analysis mode, and a multi-reaction monitoring (MRM) scan mode. […] The plasma stability of the polypeptide compound

[2] = pharmacokinetic study in rats, single intravenous bolus injection; type: in vivo, SD rats; conditions: for Cmax: read-out: Cmax
Procedure: With male SD rats as test animals, the pharmacokinetic behavior of polypeptide compounds administered via single intravenous bolus injection in rats (plasma) was studied.
Male SD rats weighing 170 to 200 grams and aged 4-6 weeks were purchased from Beijing Vital River Laboratory Animal Technology Co., Ltd. The polypeptide compounds were dissolved in 1× PBS, and the polypeptide compound solutions were then administered via intravenous bolus injection over 10 min at a dose of 3 nmol/g, with three animals per group. At each of the time points of 2 min, 8 min, 15 min, 30 min, 45 min, 60 min, and 120 min after the end of bolus injection, 0.2 mL of blood was collected and transferred to an EDTA-K2 anticoagulation centrifuge tube. The whole blood sample was centrifuged at 4 °C at 4000 g for 5 min, and a plasma sample was obtained by separation and cryopreserved at -80 °C.
The pharmacokinetic parameters of polypeptide compound 22, administered via intravenous bolus injection, in rats were determined using a similar method, with the difference being that an enzyme inhibitor was added immediately after blood collection.
The plasma concentrations of the test compounds were determined using the method in Test Example 3.4.3. Plasma concentration-time curves were plotted, and the pharmacokinetic parameters were calculated using PKSolver software. The experimental results are shown in Table 5-1, Table 5-2, and FIG. 3.

[3] = pharmacokinetic study of different doses in rats; type: in vivo, SD rats; conditions: SD, rat, plasma, intravenous bolus injection; for AUC(0-t): blood to 180 min, n = 3, read-out: AUC(0-t); for AUC(0-inf) / MRT / half-life: n = 3; for Cmax: n = 3, read-out: Cmax
Procedure: For example, at high doses, the agent causes symptoms such as tachycardia and blood pressure reduction due to excessive histamine release. Therefore, the pharmacokinetic profile of polypeptide compound 14 was assessed again using three doses: a high dose (3 nmol/g), a medium dose (1 nmol/g), and a low dose (0.3 nmol/g). […] Plasma concentration-time curves were plotted, and the pharmacokinetic parameters were calculated using WinNonlin software. Table 6. Intravenous bolus injection pharmacokinetic parameters in rats (different doses, n = 3)

histamine release = test: ability to induce histamine release in rats (plasma); type: in vivo, SD rats; parameters: Histamine levels (sums of detected histamine and 3-methylhistamine): unit not given here; conditions: for Histamine levels (sums of detected histamine and 3-methylhistamine): rat plasma
Procedure: With male SD rats as test animals, the ability of a polypeptide compound administered via single intravenous bolus injection to induce histamine release in rats (plasma) was studied.
This test was performed synchronously with Test Examples 3.6, with three animals per group and blood collection time points set as follows: before administration, and 2 min, 8 min, and 15 min after the end of intravenous bolus injection.
The histamine and 3-methylhistamine levels at each time point were determined by LC-MS/MS. LC-MS detection of compounds: (1) Chromatographic conditions: mobile phase A: acetonitrile/water/100 mM ammonium acetate, 50/45/5 (v/v/v), 2% FA; mobile phase B: acetonitrile/100 mM ammonium acetate, 95/5 (v/v), 2% FA; flow rate: 0.4 mL/min; chromatography column: Waters BEH HILIC 1.7 µm, 2.1 × 150 mm; column temperature: 50 °C; injection volume: 20 µL. (2) Mass-spectrometric conditions: The mass spectrometry analysis used an electrospray ionization (ESI) source, a positive ion analysis mode, and a multi-reaction monitoring (MRM) scan mode.
Sample pretreatment: A 30 µL plasma sample was taken and added to 200 µL of an acetonitrile solution containing tetradeuterated histamine (D4-histamine, 100 ng/mL). The mixture was vortexed for 1 min and then centrifuged at 5800 rpm for 10 min, and 100 µL of the supernatant was transferred to a sample tray and injected into an instrument for analysis. […] Table 7. Histamine levels at different time points

[4] = Human plasma, 25 µM, 10min, read-out: Relative remaining compound content (%)
[5] = Human plasma, 25 µM, 20min, read-out: Relative remaining compound content (%)
[6] = Human plasma, 25 µM, 30min, read-out: Relative remaining compound content (%)
[7] = Human plasma, 25 µM, 60min, read-out: Relative remaining compound content (%)
[8] = Human plasma, 25 µM, 120min, read-out: Relative remaining compound content (%)
[9] = male, SD, rat, plasma, rats, intravenous bolus injection over 10 min, 3 nmol/g, n = 3
[10] = male, SD, rat, plasma, 3 nmol/g, rats, intravenous bolus injection, enzyme inhibitor added immediately after blood collection, n = 3
[11] = rats, intravenous bolus injection, enzyme inhibitor added (Table 5-2)

Compound: CC[C@H](C)[C@H](NC(=O)[C@H](CO)NC(=O)[C@H](CO)NC(=O)[C@H](CC(C)C)NC(=O)[C@@H](CCCCN)NC(=O)[C@H](CCCNC(=N)N)NC(=O)[C@H](CCCNC(=N)N)NC(=O)[C@@H](CCCNC(=N)N)NC(=O)[C@H](CCC(N)=O)NC(=O)[C@@H](CCCNC(=N)N)NC(=O)[C@H](CCCNC(=N)N)NC(=O)[C@H](CCCCN)NC(=O)[C@H](CCCCN)NC(=O)[C@@H](CCCNC(=N)N)NC(=O)CNC(=O)[C@@H](N)Cc1ccc(O)cc1)C(=O)N[C@@H](CCC(=O)O)C(=O)N[C@@H](CO)C(=O)N[C@@H](CC(=O)O)C(=O)N[C@H](C(=O)O)C(C)C [NoNO42, YGrKKRrQrRRkLSSIESDV, reference compound] (H-YG[dR]KKR[dR]Q[dR]RR[dK]LSSIESDV-OH)
- remaining at 10 min, 25 µM ([1]; human, plasma): 104%
- remaining at 20 min, 25 µM ([1]; human, plasma): 104%
- remaining at 0.5 h, 25 µM ([1]; human, plasma): 107%
- remaining at 1 h, 25 µM ([1]; human, plasma): 99.3%
- remaining at 2 h, 25 µM ([1]; human, plasma): 107%
- half-life ([2]; male, SD, rat, in vivo, iv): 0.04 h
- AUClast/dose ([2]; rat, in vivo, iv): 25
- half-lives ([2]; rat, in vivo, iv): less than 3 min

Compound: CC(C)[C@H](NC(=O)[C@H](CC(=O)O)NC(=O)[C@@H](NC(=O)[C@@H](NC(=O)[C@@H](NC(=O)[C@@H](NC(=O)[C@H](CCN)NC(=O)C(C)(C)NC(=O)CNC(=O)[C@@H](CCCNC(=N)N)NC(=O)[C@@H](CCCNC(=N)N)NC(=O)[C@@H](CCCNC(=N)N)NC(=O)[C@@H](CCC(N)=O)NC(=O)[C@@H](CCCNC(=N)N)NC(=O)[C@@H](CCCNC(=N)N)NC(=O)[C@@H](CCCCN)NC(=O)[C@@H](CCCCN)NC(=O)[C@@H](CCCNC(=N)N)NC(=O)CNC(=O)[C@H](N)Cc1ccc(O)cc1)[C@@H](C)O)C(C)(C)C)C(C)(C)C)[C@@H](C)O)C(=O)O [Polypeptide compound 14, y-G-r-k-k-r-r-q-r-r-r-G-Aib-Dab-T-Tle-Tle-T-D-V] (H-[dY]G[dR][dK][dK][dR][dR][dQ][dR][dR][dR]G[Aib][Dab]T[Tle][Tle]TDV-OH)
- Relative remaining compound content (%) ([1]; Human plasma, 25 µM): 100.0%
- remaining at 10 min, 25 µM [1, 4]: 102%
- remaining at 20 min, 25 µM [1, 5]: 101%
- remaining at 0.5 h, 25 µM [1, 6]: 97.3%
- remaining at 1 h, 25 µM [1, 7]: 103%
- remaining at 2 h, 25 µM [1, 8]: 105%
- AUC(0-inf) [2, 9]: 9900 ng·h/mL
- MRT [2, 9]: 1.19 h
- AUC(0-t) ([2]; male, SD, rat, plasma, rats, intravenous bolus injection over 10 min, 3 nmol/g, n = 3, read-out: AUC(0-t)): 7910 ng·h/mL
- Cmax [2, 9]: 15100 ng/mL
- half-life ([2]; male, SD, rat, plasma, rats, intravenous bolus injection over 10 min, 3 nmol/g, n = 3, read-out: T1/2 (converted)): 0.94 h
- AUClast/dose ([2]; rats, intravenous bolus injection over 10 min, 3 nmol/g, n = 3): 1041
- AUC(0-t) ([3]; 0.3 nmol/g): 1230 ng·h/mL
- AUC(0-inf) ([3]; 0.3 nmol/g): 1280 ng·h/mL
- MRT ([3]; 0.3 nmol/g): 0.856 h
- half-life ([3]; 0.3 nmol/g): 0.723 h
- Cmax ([3]; 0.3 nmol/g): 1870 ng/mL
- AUC(0-t) ([3]; 1 nmol/g): 5860 ng·h/mL
- AUC(0-inf) ([3]; 1 nmol/g): 6600 ng·h/mL
- MRT ([3]; 1 nmol/g): 1.31 h
- half-life ([3]; 1 nmol/g): 0.967 h
- Cmax ([3]; 1 nmol/g): 5970 ng/mL
- AUC(0-t) ([3]; 3 nmol/g): 15000 ng·h/mL
- AUC(0-inf) ([3]; 3 nmol/g): 17700 ng·h/mL
- MRT ([3]; 3 nmol/g): 1.47 h
- half-life ([3]; 3 nmol/g): 1.15 h
- Cmax ([3]; 3 nmol/g): 18300 ng/mL
- Histamine levels (sums of detected histamine and 3-methylhistamine) (histamine release; 0.3 nmol/g, 0 min (before administration)): 34.1±21.7
- Histamine levels (sums of detected histamine and 3-methylhistamine) (histamine release; 0.3 nmol/g, 2 min after the end of intravenous bolus injection): 18.2±5.2
- Histamine levels (sums of detected histamine and 3-methylhistamine) (histamine release; 0.3 nmol/g, 8 min after the end of intravenous bolus injection): 38.7±16.8
- Histamine levels (sums of detected histamine and 3-methylhistamine) (histamine release; 0.3 nmol/g, 15 min after the end of intravenous bolus injection): 45.3±3.3
- Histamine levels (sums of detected histamine and 3-methylhistamine) (histamine release; 1 nmol/g, 0 min (before administration)): 45.5±14.4
- Histamine levels (sums of detected histamine and 3-methylhistamine) (histamine release; 1 nmol/g, 2 min after the end of intravenous bolus injection): 41.9±23.3
- Histamine levels (sums of detected histamine and 3-methylhistamine) (histamine release; 1 nmol/g, 8 min after the end of intravenous bolus injection): 59.4±53.5
- Histamine levels (sums of detected histamine and 3-methylhistamine) (histamine release; 1 nmol/g, 15 min after the end of intravenous bolus injection): 71.4±38.7
- Histamine levels (sums of detected histamine and 3-methylhistamine) (histamine release; 3 nmol/g, 0 min (before administration)): 50.2±28.7
- Histamine levels (sums of detected histamine and 3-methylhistamine) (histamine release; 3 nmol/g, 2 min after the end of intravenous bolus injection): 754.7±448.6
- Histamine levels (sums of detected histamine and 3-methylhistamine) (histamine release; 3 nmol/g, 8 min after the end of intravenous bolus injection): 558.0±405.6
- Histamine levels (sums of detected histamine and 3-methylhistamine) (histamine release; 3 nmol/g, 15 min after the end of intravenous bolus injection): 265.3±145.7
- increase in histamine levels (histamine release; rats, medium (1 nmol/g) or low (0.3 nmol/g) dose, within 15 min): no significant increase in histamine levels
- peak histamine release relative to NA-1 (histamine release; rats, same high dose (3 nmol/g), 2 min): nearly twice that of NA-1

Compound: CC(C)[C@H](NC(=O)[C@H](CC(=O)O)NC(=O)[C@@H](NC(=O)[C@@H](NC(=O)[C@@H](NC(=O)[C@@H](NC(=O)[C@H](CCN)NC(=O)C(C)(C)NC(=O)CNC(=O)[C@@H](CCCNC(=N)N)NC(=O)[C@H](CCCNC(=N)N)NC(=O)[C@H](CCCNC(=N)N)NC(=O)[C@H](CCC(N)=O)NC(=O)[C@@H](CCCNC(=N)N)NC(=O)[C@H](CCCNC(=N)N)NC(=O)[C@H](CCCCN)NC(=O)[C@H](CCCCN)NC(=O)[C@H](N)CCCNC(=N)N)[C@@H](C)O)C(C)(C)C)C(C)(C)C)[C@@H](C)O)C(=O)O [Polypeptide compound 22, r-K-K-R-r-Q-R-R-r-G-Aib-Dab-T-Tle-Tle-T-D-V] (H-[dR]KKR[dR]QRR[dR]G[Aib][Dab]T[Tle][Tle]TDV-OH)
- Relative remaining compound content (%) ([1]; Human plasma, 25 µM): 100.0%
- remaining at 10 min, 25 µM [1, 4]: 99.5%
- remaining at 20 min, 25 µM [1, 5]: 97%
- remaining at 0.5 h, 25 µM [1, 6]: 104%
- remaining at 1 h, 25 µM [1, 7]: 98%
- remaining at 2 h, 25 µM [1, 8]: 90.1%
- AUC(0-inf) ([2]; male, SD, rat, in vivo, 3 nmol/g, rats, intravenous bolus injection, enzyme inhibitor added immediately after blood collection, n = 3): 24300 ng·h/mL
- MRT [2, 10]: 1.77 h
- Tmax [2, 10]: 0.36 h
- Cmax [2, 10]: 16900 ng/mL
- half-life ([2]; male, SD, rat, plasma, 3 nmol/g, rats, intravenous bolus injection, enzyme inhibitor added immediately after blood collection, n = 3, read-out: T1/2 (converted)): 1.16 h
- area under the curve (AUC) increase compared to NA-1 [2, 11]: 19.4 fold
- half-life increase compared to NA-1 [2, 11]: 29 fold
- maximum plasma concentration (Cmax) increase compared to NA-1 [2, 11]: 2.3 fold
- AUClast/dose ([2]; rats, intravenous bolus injection, enzyme inhibitor added immediately after blood collection, n = 3): 2239.6
